The first assay has as its target PHGDH (Homo sapiens (Human), UniProt O43175). Put plainly: 3-Phosphoglycerate Dehydrogenase (PHGDH) Fluorescence Intensity Assay, run at two NAD/3-PG ratios: PHGDH_HIGH_NAD/3-PG (250 μM NAD/500 μM 3-PG) and PHGDH_500_NAD/3-PG (500 μM NAD/500 μM 3-PG). The format is biochemical. To be noted: 250 μM NAD/500 μM 3-PG; read-out: IC50 (PHGDH_HIGH_NAD/3-PG).
Chain of PHGDH (O43175 2-533 limits assumed): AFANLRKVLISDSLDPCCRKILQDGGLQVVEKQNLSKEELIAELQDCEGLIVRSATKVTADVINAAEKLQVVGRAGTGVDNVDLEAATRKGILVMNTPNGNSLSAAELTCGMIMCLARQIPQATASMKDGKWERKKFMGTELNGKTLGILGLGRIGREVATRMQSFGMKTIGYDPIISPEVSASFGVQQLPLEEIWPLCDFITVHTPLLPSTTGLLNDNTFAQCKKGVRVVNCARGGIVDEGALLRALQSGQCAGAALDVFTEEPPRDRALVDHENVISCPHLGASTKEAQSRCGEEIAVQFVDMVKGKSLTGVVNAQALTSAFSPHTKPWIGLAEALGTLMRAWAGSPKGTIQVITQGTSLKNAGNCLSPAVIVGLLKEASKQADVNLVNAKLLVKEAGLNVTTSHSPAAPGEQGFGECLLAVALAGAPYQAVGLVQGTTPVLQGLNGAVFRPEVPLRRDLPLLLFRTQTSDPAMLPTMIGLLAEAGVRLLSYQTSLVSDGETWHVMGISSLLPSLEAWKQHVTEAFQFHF
With `Cc1cc2c(cc(C(=O)N[C@H](C)c3ccc(S(=O)(=O)CC(=O)OC(C)C)cc3)n2C)c(Cl)c1F` [Example 01-033, propan-2-yl 2-{4-[(1R)-1-[(4-chloro-5-fluoro-1,6-dimethyl-1H-indol-2-yl)formamido]ethyl]benzenesulfonyl}acetate], the IC50 stood at 36.5 µM.

Regarding `Cc1cc(Cl)c2cc(C(=O)N[C@H](CO)c3ccc(S(=O)(=O)CC(=O)OC(C)C)cc3)n(C)c2n1` [Example 01-034, propan-2-yl 2-{4-[(1S)-1-({4-chloro-1,6-dimethyl-1H-pyrrolo[2,3-b]pyridin-2-yl}formamido)-2-hydroxyethyl]benzenesulfonyl}acetate], the IC50 turned out to be 1.15 µM.

`Cc1cc2c(cc(C(=O)N[C@H](CO)c3ccc(S(=O)(=O)CC(=O)OC(C)C)cc3)n2C)c(Cl)c1F` [Example 01-035, propan-2-yl 2-{4-[(1S)-1-[(4-chloro-5-fluoro-1,6-dimethyl-1H-indol-2-yl)formamido]-2-hydroxyethyl]benzenesulfonyl}acetate]: the IC50 is 0.466 µM.

On to `Cc1cc(Cl)c2cc(C(=O)N[C@H](C)c3ccc(S(=O)(=O)CC(=O)OC(C)C)cc3)n(C)c2n1` [Example 01-036, propan-2-yl 2-{4-[(1R)-1-({4-chloro-1,6-dimethyl-1H-pyrrolo[2,3-b]pyridin-2-yl}formamido)ethyl]benzenesulfonyl}acetate], for which the IC50 came out at 1.83 µM.

As for `Cc1cc2c(cc(C(=O)N[C@H](C)c3ccc(S(=O)(=O)CC(=O)OC(C)C)cc3)n2C)c(Cl)c1Cl` [Example 01-037, propan-2-yl 2-{4-[(1R)-1-[(4,5-dichloro-1,6-dimethyl-1H-indol-2-yl)formamido]ethyl]benzenesulfonyl}acetate], the IC50 was 3.37 µM.

Take `Cc1cc(Cl)c2cc(C(=O)N[C@H](CO)c3ccc(S(=O)(=O)CC(=O)OC(C)C)cc3)n(C)c2c1` [Example 01-038, propan-2-yl 2-{4-[(1S)-1-[(4-chloro-1,6-dimethyl-1H-indol-2-yl)formamido]-2-hydroxyethyl]benzenesulfonyl}acetate]: the IC50 came out at 0.261 µM.

Turning to `Cc1cc2c(cc(C(=O)N[C@H](CO)c3ccc(S(=O)(=O)CC(=O)OC(C)C)cc3)n2C)c(F)c1F` [Example 01-039, propan-2-yl 2-{4-[(1S)-1-[(4,5-difluoro-1,6-dimethyl-1H-indol-2-yl)formamido]-2-hydroxyethyl]benzenesulfonyl}acetate], the IC50 stood at 1.12 µM.

In the case of `CC(C)OC(=O)CS(=O)(=O)c1ccc([C@@H](CO)NC(=O)c2cc3c(Cl)cc(N4CCN(C)CC4)cc3n2C)cc1` [Example 01-040, propan-2-yl 2-{4-[(1S)-1-{[4-chloro-1-methyl-6-(4-methylpiperazin-1-yI)-1H-indol-2-yl]formamido}-2-hydroxyethyl]benzenesulfonyl}acetate], the IC50 turned out to be 0.981 µM.

As to `CC(C)OC(=O)CS(=O)(=O)c1ccc([C@@H](C)NC(=O)c2cc3c(Cl)cc(N4CCN(C)CC4)cc3n2C)cc1` [Example 01-041, propan-2-yl 2-{4-[(1R)-1-{[4-chloro-1-methyl-6-(4-methylpiperazin-1-yl)-1H-indol-2-yl]formamido}ethyl]benzenesulfonyl}acetate], the IC50 turned out to be 3.14 µM.

In the case of `COC(=O)CS(=O)(=O)c1ccc([C@@H](C)NC(=O)c2cc(-c3ccccc3)nn2C)cc1` [Example 02-002, methyl 2-{4-[(1R)-1-[(1-methyl-3-phenyl-1H-pyrazol-5-yl)formamido]ethyl]benzenesulfonyl}acetate], the IC50 came out at 1.36 µM.

As to `CCOC(=O)CS(=O)(=O)c1ccc([C@@H](C)NC(=O)c2cc(-c3ccccc3)nn2C)cc1` [Example 02-003, ethyl 2-{4-[(1R)-1-[(1-methyl-3-phenyl-1H-pyrazol-5-yl)formamido]ethyl]benzenesulfonyl}acetate], the IC50 turned out to be 3.18 µM.

`COC(=O)CS(=O)(=O)c1ccc([C@@H](C)NC(=O)c2cc(-c3cccc4cc[nH]c34)nn2C)cc1` [Example 02-006, methyl 2-{4-[(1R)-1-{[3-(1H-indol-7-yl)-1-methyl-1H-pyrazol-5-yl]formamido}ethyl]benzenesulfonyl}acetate]: the IC50 was 1.27 µM.

For the molecule `COC(=O)CS(=O)(=O)c1ccc([C@H](C)NC(=O)c2cc(-c3ccccc3)nn2C)cn1` [Example 02-009, methyl 2-({5-[(1S)-1-[(1-methyl-3-phenyl-1H-pyrazol-5-yl)formamido]ethyl]pyridin-2-yl}sulfonyl)acetate], the IC50 is over 100 µM.

In the case of `COc1cc(-c2cc(C(=O)N[C@H](C)c3ccc(S(=O)(=O)CC(=O)OC(C)C)cc3)n(C)n2)ccc1F` [Example 02-012, propan-2-yl 2-{4-[(1R)-1-{[3-(4-fluoro-3-methoxyphenyl)-1-methyl-1H-pyrazol-5-yl]formamido}ethyl]benzenesulfonyl}acetate], the IC50 stood at 3.72 µM.

In the case of `COc1cc(-c2cc(C(=O)N[C@H](C)c3ccc(S(=O)(=O)CC(=O)OC(C)C)cc3)n(C)n2)ccc1Cl` [Example 02-013, propan-2-yl 2-{4-[(1R)-1-{[3-(4-chloro-3-methoxyphenyl)-1-methyl-1H-pyrazol-5-yl]formamido}ethyl]benzenesulfonyl}acetate], the IC50 worked out at 6.12 µM.

With `CC(C)OC(=O)CS(=O)(=O)c1ccc([C@@H](C)NC(=O)c2cc(-c3ccc(Cl)c(Cl)c3)nn2C)cc1` [Example 02-014, propan-2-yl 2-{4-[(1R)-1-{[3-(3,4-dichlorophenyl)-1-methyl-1H-pyrazol-5-yl]formamido}ethyl]benzenesulfonyl}acetate], the IC50 turned out to be 73.3 µM.

In the case of `Cc1cc(-c2cc(C(=O)N[C@H](C)c3ccc(S(=O)(=O)CC(=O)OC(C)C)cc3)n(C)n2)ccc1F` [Example 02-015, propan-2-yl 2-{4-[(1R)-1-{[3-(4-fluoro-3-methylphenyl)-1-methyl-1H-pyrazol-5-yl]formamido}ethyl]benzenesulfonyl}acetate], the IC50 came to 5.49 µM.

Consider `CC(C)OC(=O)CS(=O)(=O)c1ccc([C@@H](C)NC(=O)c2cc(-c3ccc(F)c(F)c3)nn2C)cc1` [Example 02-016, propan-2-yl 2-{4-[(1R)-1-{[3-(3,4-difluorophenyl)-1-methyl-1H-pyrazol-5-yl]formamido}ethyl]benzenesulfonyl}acetate], for which the IC50 was over 20 µM.

On to `CC(C)OC(=O)CS(=O)(=O)c1ccc([C@@H](CO)NC(=O)c2cc(-c3ccc(F)cc3)nn2C)cc1` [Example 02-017, propan-2-yl 2-{4-[(1S)-1-{[3-(4-fluorophenyl)-1-methyl-1H-pyrazol-5-yl]formamido}-2-hydroxyethyl]benzenesulfonyl}acetate], for which the IC50 came out at 7.71 µM.

Consider `Cc1cc(Cl)c2cc(C(=O)N[C@H](C)c3ccc(S(=O)(=O)CC(=O)O)cc3)n(C)c2c1C` [Example 03-003, 2-{4-[(1R)-1-[(4-chloro-1,6,7-trimethyl-1H-indol-2-yl)formamido]ethyl]benzenesulfonyl}acetic acid], for which the IC50 is 0.013 µM.

Regarding `C[C@@H](NC(=O)c1cc2c(Cl)cc(-c3cnn(C)c3)cc2n1C)c1ccc(S(=O)(=O)CC(=O)O)cc1` [Example 03-004, 2-{4-[(1R)-1-{[4-chloro-1-methyl-6-(1-methyl-1H-pyrazol-4-yl)-1H-indol-2-yl]formamido}ethyl]benzenesulfonyl}acetic acid], the IC50 came to 0.02 µM.

Turning to `C#Cc1cc(Cl)c2cc(C(=O)NC(C)c3ccc(S(=O)(=O)CC(=O)O)cc3)n(C)c2c1` (stereo not shown) [Example 03-007, 2-(4-{1-[(4-chloro-6-ethynyl-1-methyl-1H-indol-2-yl)formamido]ethyl}benzenesulfonyl)acetic acid], the IC50 is 0.029 µM.

Take `CC(NC(=O)c1cc2c(Cl)cc(I)cc2n1C)c1ccc(S(=O)(=O)CC(=O)O)cc1` (stereo not shown) [Example 03-008, 2-(4-{1-[(4-chloro-6-iodo-1-methyl-1H-indol-2-yl)formamido]ethyl}benzenesulfonyl)acetic acid]: the IC50 stood at 0.024 µM.

With `Cc1nc2c(cc(C(=O)N[C@H](C)c3ccc(S(=O)(=O)CC(=O)O)cc3)n2C)c(Cl)c1Cl` [Example 03-010, 2-{4-[(1R)-1-({4,5-dichloro-1,6-dimethyl-1H-pyrrolo[2,3-b]pyridin-2-yl}formamido)ethyl]benzenesulfonyl}acetic acid], the IC50 is 0.17 µM.

For the molecule `Cc1cc2c(cc(C(=O)N[C@H](CO)c3ccc(S(=O)(=O)CC(=O)O)cc3)n2C)c(F)c1F` [Example 03-012, 2-{4-[(1S)-1-[(4,5-difluoro-1,6-dimethyl-1H-indol-2-yl)formamido]-2-hydroxyethyl]benzenesulfonyl}acetic acid], the IC50 stood at 0.008 µM.

Regarding `Cc1cc(Cl)c2cc(C(=O)N[C@H](CO)c3ccc(S(=O)(=O)CC(=O)O)cc3)n(C)c2n1` [Example 03-013, 2-{4-[(1S)-1-({4-chloro-1,6-dimethyl-1H-pyrrolo[2,3-b]pyridin-2-yl}formamido)-2-hydroxyethyl]benzenesulfonyl}acetic acid], the IC50 turned out to be 0.035 µM.

Take `Cc1cc2c(cc(C(=O)N[C@H](C)c3ccc(S(=O)(=O)CC(=O)O)cc3)n2C)c(Cl)c1F` [Example 03-014, 2-{4-[(1R)-1-[(4-chloro-5-fluoro-1,6-dimethyl-1H-indol-2-yl)formamido]ethyl]benzenesulfonyl}acetic acid]: the IC50 was determined as 0.005 µM.

Take `Cc1cc(Cl)c2cc(C(=O)N[C@H](C)c3ccc(S(=O)(=O)CC(=O)O)cc3)n(C)c2n1` [Example 03-015, 2-{4-[(1R)-1-({4-chloro-1,6-dimethyl-1H-pyrrolo[2,3-b]pyridin-2-yl}formamido)ethyl]benzenesulfonyl}acetic acid]: the IC50 stood at 0.041 µM.

For `Cc1cc2c(cc(C(=O)N[C@H](CO)c3ccc(S(=O)(=O)CC(=O)O)cc3)n2C)c(Cl)c1F` [Example 03-016, 2-{4-[(1S)-1-[(4-chloro-5-fluoro-1,6-dimethyl-1H-indol-2-yl)formamido]-2-hydroxyethyl]benzenesulfonyl}acetic acid], the IC50 stood at 0.005 µM.

Staying with this assay, now noted: 500 μM NAD/500 μM 3-PG; read-out: IC50 (PHGDH_500_NAD/3-PG).
Turning to `Cc1cc(Cl)c2cc(C(=O)N[C@H](C)c3ccc(S(=O)(=O)CC(=O)O)cc3)n(C)c2c1C` [Example 03-003, 2-{4-[(1R)-1-[(4-chloro-1,6,7-trimethyl-1H-indol-2-yl)formamido]ethyl]benzenesulfonyl}acetic acid], the IC50 stood at 0.022 µM.

For the molecule `C[C@@H](NC(=O)c1cc2c(Cl)cc(-c3cnn(C)c3)cc2n1C)c1ccc(S(=O)(=O)CC(=O)O)cc1` [Example 03-004, 2-{4-[(1R)-1-{[4-chloro-1-methyl-6-(1-methyl-1H-pyrazol-4-yl)-1H-indol-2-yl]formamido}ethyl]benzenesulfonyl}acetic acid], the IC50 is 0.029 µM.

As to `Cc1cc2c(cc(C(=O)N[C@H](CO)c3ccc(S(=O)(=O)CC(=O)O)cc3)n2C)c(F)c1F` [Example 03-012, 2-{4-[(1S)-1-[(4,5-difluoro-1,6-dimethyl-1H-indol-2-yl)formamido]-2-hydroxyethyl]benzenesulfonyl}acetic acid], the IC50 is 0.017 µM.

With `Cc1cc2c(cc(C(=O)N[C@H](C)c3ccc(S(=O)(=O)CC(=O)O)cc3)n2C)c(Cl)c1F` [Example 03-014, 2-{4-[(1R)-1-[(4-chloro-5-fluoro-1,6-dimethyl-1H-indol-2-yl)formamido]ethyl]benzenesulfonyl}acetic acid], the IC50 came out at 0.007 µM.

As to `Cc1cc2c(cc(C(=O)N[C@H](CO)c3ccc(S(=O)(=O)CC(=O)O)cc3)n2C)c(Cl)c1F` [Example 03-016, 2-{4-[(1S)-1-[(4-chloro-5-fluoro-1,6-dimethyl-1H-indol-2-yl)formamido]-2-hydroxyethyl]benzenesulfonyl}acetic acid], the IC50 was 0.007 µM.

The record behind these values is US11304929B2, “Tosylacetate based compounds and derivatives thereof as PHGDH inhibitors” (priority 2017, dated 2022).
